Experimental data from ChEMBL document CHEMBL1201862, “PubChem BioAssay data set” (2004).
Activity calls are given as the source filed them.

Columns and labels:
[1] = target: T1, Histone-lysine N-methyltransferase NSD2 (Homo sapiens, UniProt O96028); assay type: biochemical
T1 sequence (O96028 whole entry): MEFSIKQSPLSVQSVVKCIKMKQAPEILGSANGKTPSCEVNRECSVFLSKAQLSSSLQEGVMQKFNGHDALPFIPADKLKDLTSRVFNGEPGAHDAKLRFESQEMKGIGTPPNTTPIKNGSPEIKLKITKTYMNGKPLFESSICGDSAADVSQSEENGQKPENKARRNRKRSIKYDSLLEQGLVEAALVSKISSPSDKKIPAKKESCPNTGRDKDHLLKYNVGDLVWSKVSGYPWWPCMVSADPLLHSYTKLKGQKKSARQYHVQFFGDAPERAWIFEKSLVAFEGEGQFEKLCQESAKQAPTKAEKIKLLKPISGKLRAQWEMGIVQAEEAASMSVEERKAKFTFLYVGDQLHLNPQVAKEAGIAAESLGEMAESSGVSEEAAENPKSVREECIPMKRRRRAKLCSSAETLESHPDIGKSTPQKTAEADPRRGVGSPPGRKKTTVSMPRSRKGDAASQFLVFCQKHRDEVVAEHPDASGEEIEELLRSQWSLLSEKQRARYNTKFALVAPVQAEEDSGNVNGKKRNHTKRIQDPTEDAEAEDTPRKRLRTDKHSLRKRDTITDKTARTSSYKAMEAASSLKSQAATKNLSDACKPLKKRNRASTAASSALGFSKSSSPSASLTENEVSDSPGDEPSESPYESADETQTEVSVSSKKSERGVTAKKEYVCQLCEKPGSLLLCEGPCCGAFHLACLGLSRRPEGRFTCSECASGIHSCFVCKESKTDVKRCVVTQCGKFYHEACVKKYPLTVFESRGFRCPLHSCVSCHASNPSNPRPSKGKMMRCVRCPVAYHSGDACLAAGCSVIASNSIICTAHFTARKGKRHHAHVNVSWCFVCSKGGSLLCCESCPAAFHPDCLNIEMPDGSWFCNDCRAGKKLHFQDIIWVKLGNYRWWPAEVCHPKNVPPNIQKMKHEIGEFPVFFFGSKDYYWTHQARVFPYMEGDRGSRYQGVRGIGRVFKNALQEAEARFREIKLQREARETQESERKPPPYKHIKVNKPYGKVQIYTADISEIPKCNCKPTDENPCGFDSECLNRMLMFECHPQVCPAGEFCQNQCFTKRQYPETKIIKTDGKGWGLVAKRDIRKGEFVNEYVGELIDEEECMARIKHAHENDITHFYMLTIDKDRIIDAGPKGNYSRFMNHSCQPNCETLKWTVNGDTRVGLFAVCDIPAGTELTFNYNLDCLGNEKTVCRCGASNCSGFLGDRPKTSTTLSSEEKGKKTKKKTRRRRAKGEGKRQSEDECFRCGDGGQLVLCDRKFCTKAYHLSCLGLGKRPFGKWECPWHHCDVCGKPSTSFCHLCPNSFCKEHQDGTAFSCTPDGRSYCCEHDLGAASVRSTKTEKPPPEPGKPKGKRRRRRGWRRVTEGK

[2] = target: T2, Polyadenylate-binding protein 1 (Homo sapiens, UniProt P11940); assay: MLLE binding blockers, Cy5 peptide tracer – biochemical, fluorescence polarization, Cy5-PAM2 peptide, secondary, miRNA deadenylation inhibitor project, dose response (AID 602260); assay type: functional; details: read-out: IC50_Mean
T2 sequence (P11940 whole entry, the tested form may be a part): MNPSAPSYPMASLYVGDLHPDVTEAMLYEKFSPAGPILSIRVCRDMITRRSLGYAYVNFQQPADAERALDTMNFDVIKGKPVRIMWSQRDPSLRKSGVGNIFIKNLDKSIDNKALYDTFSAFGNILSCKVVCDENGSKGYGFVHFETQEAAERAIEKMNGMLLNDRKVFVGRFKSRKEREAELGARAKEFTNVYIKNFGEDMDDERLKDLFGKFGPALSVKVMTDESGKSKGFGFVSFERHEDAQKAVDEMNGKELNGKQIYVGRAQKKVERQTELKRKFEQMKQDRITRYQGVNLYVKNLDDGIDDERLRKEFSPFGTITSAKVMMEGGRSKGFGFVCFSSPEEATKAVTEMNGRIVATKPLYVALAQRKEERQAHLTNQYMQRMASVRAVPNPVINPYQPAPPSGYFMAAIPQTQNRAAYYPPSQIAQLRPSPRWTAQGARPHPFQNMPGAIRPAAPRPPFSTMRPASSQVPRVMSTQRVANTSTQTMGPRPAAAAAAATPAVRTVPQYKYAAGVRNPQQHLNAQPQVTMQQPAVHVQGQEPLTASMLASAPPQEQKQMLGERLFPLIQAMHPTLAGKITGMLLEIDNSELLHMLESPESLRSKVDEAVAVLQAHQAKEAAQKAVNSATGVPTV

[3] = target: T2, Polyadenylate-binding protein 1; assay: MLLE domain peptide-binding blockers, IC50 – biochemical, fluorescence polarization, FITC-PAM2 peptide, dose response (AID 602259); assay type: functional; details: read-out: IC50_Mean
[4] = NIH3T3 cell viability loss – ATP luminescence, mouse fibroblasts, counter-screen, dose response (AID 2010); assay type: functional, cell-based;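 also: cells exposed to compound for about 90 hours before reading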
[5] = viability of HCT116 lacking mutant beta-catenin – cell-based, human colon tumor, dose response (AID 1045); assay type: functional;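 also: HCT116 colon tumor cells with beta catenin knocked out; cells exposed to compound for 60 hours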
[6] = viability of PTEN-deleted HCT116 cells – cell-based, HCT116 PTEN knockout, dose response (AID 1047); assay type: functional;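 also: HCT116 colon tumor cells with PTEN knocked out; cells exposed to compound for 60 hours before readout; potency for loss of cell viability measured by luminescence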
[7] = target: T3, Ubiquitin-conjugating enzyme E2 N (Homo sapiens, UniProt P61088); assay type: functional;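 also: Dose-response confirmation in a TR-FRET assay detecting UBC13-driven polyubiquitin chain formation, inhibition measured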
T3 sequence (P61088 whole entry): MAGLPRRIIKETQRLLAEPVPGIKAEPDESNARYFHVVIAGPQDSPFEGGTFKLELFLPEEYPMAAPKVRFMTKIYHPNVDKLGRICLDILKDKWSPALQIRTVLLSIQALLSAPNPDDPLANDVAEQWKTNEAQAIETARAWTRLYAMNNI

[8] = Luminescence Cell-Based Dose Retest to Confirm Inhibitors of Cancer Stem Cells. [Related pubchem assays (depositor defined):AID2717, AID2721]; assay type: functional; details: Homo sapiens
[9] = Trypanosoma cruzi growth suppression in host cells – NIH3T3 host cells, beta-gal luminescence, confirmation (AID 2044); assay type: functional, cell-based;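 also: intracellular parasites grown in NIH/3T3 mouse fibroblasts as host cells; luminescent beta-galactosidase reporter signal from transgenic T. cruzi replicating inside host cells; inhibitors lower the luminescence signal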
[10] = viability loss in HeLa cells – cytotoxicity control for MgcRacGAP inhibitor project, dose response (AID 624300); assay type: functional
[11] = target: T4, Replicative DNA helicase DnaB (Mycobacterium tuberculosis, UniProt P9WMR3); assay: DnaB intein splicing inhibitors, dose response, biochemical, cell-free fluorescence (AID 449749); assay type: functional
T4 sequence (P9WMR3 whole entry): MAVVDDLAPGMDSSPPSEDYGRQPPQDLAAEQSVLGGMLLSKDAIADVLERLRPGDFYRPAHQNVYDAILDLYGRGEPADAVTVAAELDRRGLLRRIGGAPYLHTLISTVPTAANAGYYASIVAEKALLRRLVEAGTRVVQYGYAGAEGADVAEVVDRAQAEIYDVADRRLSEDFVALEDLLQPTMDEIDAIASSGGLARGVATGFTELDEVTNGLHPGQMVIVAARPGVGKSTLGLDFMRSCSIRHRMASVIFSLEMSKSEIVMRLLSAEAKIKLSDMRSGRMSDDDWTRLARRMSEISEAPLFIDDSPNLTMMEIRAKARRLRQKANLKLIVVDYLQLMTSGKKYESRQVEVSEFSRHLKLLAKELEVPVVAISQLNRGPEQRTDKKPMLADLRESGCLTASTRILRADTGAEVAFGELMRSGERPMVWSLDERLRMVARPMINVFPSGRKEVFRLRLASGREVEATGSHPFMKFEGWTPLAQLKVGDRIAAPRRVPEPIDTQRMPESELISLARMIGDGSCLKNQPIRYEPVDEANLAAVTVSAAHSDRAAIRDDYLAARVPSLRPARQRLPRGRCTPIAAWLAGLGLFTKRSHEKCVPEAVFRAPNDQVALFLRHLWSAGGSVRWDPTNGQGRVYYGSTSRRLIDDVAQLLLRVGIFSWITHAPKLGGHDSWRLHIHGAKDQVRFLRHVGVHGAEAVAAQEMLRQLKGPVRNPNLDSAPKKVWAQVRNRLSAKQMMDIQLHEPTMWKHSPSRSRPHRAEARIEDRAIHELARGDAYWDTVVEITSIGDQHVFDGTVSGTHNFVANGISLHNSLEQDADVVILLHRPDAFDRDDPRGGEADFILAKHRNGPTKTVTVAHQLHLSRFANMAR

[12] = target: T5, Protein RecA (Mycobacterium tuberculosis, UniProt P9WHJ3); assay: Fluorescence Cell-Free Homogeneous Dose Retest to Identify Inhibitors of RecA-Intein Splicing Activity. [Related pubchem assays (depositor defined):AID2097, AID2223, AID489010, AID492950]; assay type: functional
T5 sequence (P9WHJ3 whole entry): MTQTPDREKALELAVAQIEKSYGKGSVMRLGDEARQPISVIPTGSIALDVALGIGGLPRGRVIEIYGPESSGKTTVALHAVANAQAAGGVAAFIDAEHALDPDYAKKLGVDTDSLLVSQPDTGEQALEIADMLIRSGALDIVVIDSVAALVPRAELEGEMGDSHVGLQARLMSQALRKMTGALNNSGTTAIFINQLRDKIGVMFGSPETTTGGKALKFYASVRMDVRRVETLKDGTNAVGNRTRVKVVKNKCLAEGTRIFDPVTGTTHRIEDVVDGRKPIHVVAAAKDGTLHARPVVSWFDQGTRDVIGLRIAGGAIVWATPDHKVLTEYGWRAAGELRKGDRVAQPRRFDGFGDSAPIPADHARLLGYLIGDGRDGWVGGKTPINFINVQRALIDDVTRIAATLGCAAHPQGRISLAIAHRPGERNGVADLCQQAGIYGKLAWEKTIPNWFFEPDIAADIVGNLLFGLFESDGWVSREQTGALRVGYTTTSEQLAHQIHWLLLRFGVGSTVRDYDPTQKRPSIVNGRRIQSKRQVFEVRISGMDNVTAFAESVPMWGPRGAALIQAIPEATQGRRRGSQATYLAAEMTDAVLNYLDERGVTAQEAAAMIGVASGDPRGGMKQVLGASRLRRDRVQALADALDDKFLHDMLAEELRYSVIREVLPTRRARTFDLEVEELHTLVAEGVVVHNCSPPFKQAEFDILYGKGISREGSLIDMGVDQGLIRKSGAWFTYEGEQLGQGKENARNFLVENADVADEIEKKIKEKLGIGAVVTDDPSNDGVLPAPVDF

[13] = target: T6, Cytochrome P450 1A2 (Homo sapiens, UniProt P05177);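 also: PubChem cytochrome P450 panel assay, CYP1A2 panel member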
T6 sequence (P05177 whole entry): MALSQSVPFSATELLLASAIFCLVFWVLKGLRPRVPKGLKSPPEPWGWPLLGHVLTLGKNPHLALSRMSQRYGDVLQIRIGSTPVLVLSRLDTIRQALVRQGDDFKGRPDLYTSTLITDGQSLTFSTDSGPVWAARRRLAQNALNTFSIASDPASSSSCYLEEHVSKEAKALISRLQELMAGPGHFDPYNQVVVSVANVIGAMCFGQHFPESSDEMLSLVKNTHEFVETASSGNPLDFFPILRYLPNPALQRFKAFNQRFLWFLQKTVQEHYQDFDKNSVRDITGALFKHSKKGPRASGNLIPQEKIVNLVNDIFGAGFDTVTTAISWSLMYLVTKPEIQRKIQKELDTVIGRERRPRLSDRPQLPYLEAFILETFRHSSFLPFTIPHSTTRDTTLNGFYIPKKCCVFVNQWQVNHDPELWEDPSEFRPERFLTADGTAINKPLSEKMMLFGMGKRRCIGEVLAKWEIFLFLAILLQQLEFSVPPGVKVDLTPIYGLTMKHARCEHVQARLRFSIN

[14] = target: Cytochrome P450 3A4 (Homo sapiens, UniProt P08684);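 also: CYP3A4 tested as one member of a cytochrome P450 panel screen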
Chain of Cytochrome P450 3A4 (P08684 whole entry): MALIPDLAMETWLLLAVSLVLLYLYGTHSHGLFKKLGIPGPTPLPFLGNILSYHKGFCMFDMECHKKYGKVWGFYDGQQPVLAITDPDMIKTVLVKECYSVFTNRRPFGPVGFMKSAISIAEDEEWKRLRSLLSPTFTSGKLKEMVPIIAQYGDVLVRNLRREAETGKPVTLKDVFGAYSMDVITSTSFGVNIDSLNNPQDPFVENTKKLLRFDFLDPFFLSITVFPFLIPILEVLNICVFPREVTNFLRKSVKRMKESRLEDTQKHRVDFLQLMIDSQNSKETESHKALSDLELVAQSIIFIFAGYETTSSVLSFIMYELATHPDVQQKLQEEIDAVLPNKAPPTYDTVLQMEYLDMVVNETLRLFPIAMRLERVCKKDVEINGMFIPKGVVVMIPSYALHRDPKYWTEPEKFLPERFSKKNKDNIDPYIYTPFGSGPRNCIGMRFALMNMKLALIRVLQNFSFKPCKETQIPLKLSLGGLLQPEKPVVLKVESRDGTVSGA

[15] = target: Cytochrome P450 2C9 (Homo sapiens, UniProt P11712)
Chain of Cytochrome P450 2C9 (P11712 whole entry): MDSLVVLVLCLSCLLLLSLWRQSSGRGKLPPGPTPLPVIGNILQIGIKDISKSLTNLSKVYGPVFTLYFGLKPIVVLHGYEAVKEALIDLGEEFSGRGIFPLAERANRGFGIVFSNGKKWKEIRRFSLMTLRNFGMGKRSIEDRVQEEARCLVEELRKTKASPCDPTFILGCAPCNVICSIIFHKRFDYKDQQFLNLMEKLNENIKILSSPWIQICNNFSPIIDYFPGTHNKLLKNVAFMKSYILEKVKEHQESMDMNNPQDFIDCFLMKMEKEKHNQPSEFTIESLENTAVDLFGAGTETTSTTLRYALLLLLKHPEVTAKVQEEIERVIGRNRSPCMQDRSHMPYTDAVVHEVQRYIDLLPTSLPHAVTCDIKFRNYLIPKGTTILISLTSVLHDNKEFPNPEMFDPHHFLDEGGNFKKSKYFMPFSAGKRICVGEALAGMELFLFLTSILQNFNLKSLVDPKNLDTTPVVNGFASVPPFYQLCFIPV

[16] = cells; assay type: functional
[17] = target: Cytochrome P450 2C19 (Homo sapiens, UniProt P33261); assay: Cytochrome panel assay with activity outcomes. Panel member name: p450-cyp2c19 Compounds with AC50 equal or less than 10 uM are considered active; assay type: functional; details: read-out: AC50
Chain of Cytochrome P450 2C19 (P33261 whole entry): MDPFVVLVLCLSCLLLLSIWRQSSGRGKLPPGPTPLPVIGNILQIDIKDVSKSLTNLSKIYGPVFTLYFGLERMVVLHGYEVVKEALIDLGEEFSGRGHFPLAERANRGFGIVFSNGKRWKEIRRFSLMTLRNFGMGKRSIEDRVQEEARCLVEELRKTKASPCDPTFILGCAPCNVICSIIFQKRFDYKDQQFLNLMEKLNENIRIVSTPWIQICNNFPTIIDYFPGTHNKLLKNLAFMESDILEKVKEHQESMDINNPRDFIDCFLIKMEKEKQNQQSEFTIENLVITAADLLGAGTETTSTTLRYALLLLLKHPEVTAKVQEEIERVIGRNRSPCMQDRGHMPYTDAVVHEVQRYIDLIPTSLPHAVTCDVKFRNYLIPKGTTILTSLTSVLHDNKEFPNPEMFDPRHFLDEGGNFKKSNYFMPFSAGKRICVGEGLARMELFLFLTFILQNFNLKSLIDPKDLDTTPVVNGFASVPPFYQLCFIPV

[18] = target: T7, Rac GTPase-activating protein 1 (Homo sapiens, UniProt Q9H0H5); assay: blockers of MgcRacGAP-driven Rac1 GTP hydrolysis – biochemical, ADP Hunter fluorescence, primary and confirmatory, confirmation (AID 624330); assay type: functional
T7 sequence (Q9H0H5 whole entry): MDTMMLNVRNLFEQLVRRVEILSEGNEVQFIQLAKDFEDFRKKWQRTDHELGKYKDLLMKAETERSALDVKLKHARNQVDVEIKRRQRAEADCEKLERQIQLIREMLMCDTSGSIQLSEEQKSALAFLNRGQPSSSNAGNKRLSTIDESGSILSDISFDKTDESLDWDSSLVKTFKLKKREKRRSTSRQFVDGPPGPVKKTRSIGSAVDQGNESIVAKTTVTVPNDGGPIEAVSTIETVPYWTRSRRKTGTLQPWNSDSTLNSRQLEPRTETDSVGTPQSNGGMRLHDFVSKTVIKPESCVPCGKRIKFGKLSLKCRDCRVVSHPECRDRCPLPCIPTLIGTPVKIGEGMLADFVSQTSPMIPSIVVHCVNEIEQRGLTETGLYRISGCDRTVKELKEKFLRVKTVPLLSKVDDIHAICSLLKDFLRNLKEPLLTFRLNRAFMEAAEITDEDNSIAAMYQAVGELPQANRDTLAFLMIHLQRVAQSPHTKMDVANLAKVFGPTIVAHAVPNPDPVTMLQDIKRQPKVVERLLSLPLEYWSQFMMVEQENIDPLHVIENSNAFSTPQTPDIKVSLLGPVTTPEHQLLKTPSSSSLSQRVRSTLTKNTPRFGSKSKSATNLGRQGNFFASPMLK

CN(C=[N+](C)C)c1cccc2c1C(=O)c1ccccc1C2=O
AC50 [1]: > 20 µM (inactive)
IC50 [2]: > 66 µM (inactive)
IC50 [3]: 58.5 µM (inactive)

N#C/C(=C/c1cn(-c2ccccc2)nc1-c1cccc(OCc2ccccc2)c1)C(=O)NCCCn1ccnc1
EC50 [4]: > 30 µM (not active)
EC50 [5]: 22 µM (active)
EC50 [6]: 23.8 µM (active)
IC50 [7]: > 20 µM (inactive)
AC50 [8]: 5.32 µM (active)
EC50 [9]: 1.44 µM (active)

CCn1c(=O)c(C(=O)NCCN2CCCCC2)c(O)c2ccccc21
IC50 [7]: > 20 µM (inactive)

CCN(Cc1ccccc1)C(c1ccc(C)cc1)c1nnnn1C(C)(C)CC (centres undefined)
CC50 [10]: 100 µM (active)
AC50 [11]: 2.41 µM (active)
EC50 [12]: > 380 µM (inactive)

CCN(CC)S(=O)(=O)c1ccc(C(=O)NNC(=O)C2CCN(S(=O)(=O)c3ccc(Cl)cc3)CC2)cc1
IC50 [7]: > 20 µM (inactive)

COc1ncc2nc(-c3cn(C)c4ccccc34)c(=O)n(-c3ccccc3)c2n1
AC50 [13]: 5.01 µM (inconclusive)
AC50 [14]: 3.16 µM (inconclusive)
AC50 [15]: inconclusive

CCN(CC)CCCNC(=O)C1CCN(C(=O)c2oc3cc4sc(N(C)C)nc4cc3c2C)CC1
AC50 [1]: > 20 µM (inactive)

COc1cc2[nH]c3c(N4CCN(c5ccc(Cl)cc5)CC4)ncnc3c2cc1OC
IC50 [7]: > 20 µM (inactive)

CCCCCn1nnc2c(=O)oc3ccccc3c21
IC50 [16]: 2.67 µM (active)

Cc1sc(N/N=C/C=C/c2ccccc2)nc1-c1ccccc1
AC50 [13]: 3.55 µM (inconclusive)
EC50 [4]: 13.8 µM (active)
AC50 [15]: inconclusive
EC50 [9]: 2.67 µM (active)

CCC12CN3CC(CC)(CN(C1)C3c1cccnc1)C2=O (centres undefined)
AC50 [13]: 28.2 µM (inconclusive)
AC50 [14]: 4.47 µM (inconclusive)
AC50 [15]: inconclusive

COc1ccc(C(=O)Nn2cnc3ccccc3c2=O)c(OC)c1
AC50 [13]: 11.2 µM (inconclusive)
AC50 [17]: 17.8 µM (inconclusive)
AC50 [15]: inconclusive

COc1ccc(CNCCc2ccc(Cl)cc2)c(OC)c1OC
CC50 [10]: 100 µM (active)
EC50 [4]: > 60 µM (not active)
IC50 [18]: 259 µM (active)
EC50 [9]: 0.462 µM (active)
